The structures appear in SMILES notation.

The target in this test is T1, Mycothiol S-conjugate amidase (Mycobacterium tuberculosis, UniProt P9WJN1).
T1 sequence (P9WJN1 whole entry): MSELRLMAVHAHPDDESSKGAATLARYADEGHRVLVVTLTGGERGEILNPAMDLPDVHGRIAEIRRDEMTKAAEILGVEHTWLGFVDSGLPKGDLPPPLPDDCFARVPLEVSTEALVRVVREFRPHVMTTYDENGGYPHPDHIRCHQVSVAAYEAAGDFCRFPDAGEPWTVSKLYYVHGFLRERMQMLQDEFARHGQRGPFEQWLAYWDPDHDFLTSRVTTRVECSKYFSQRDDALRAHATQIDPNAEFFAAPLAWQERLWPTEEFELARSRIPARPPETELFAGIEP
The test is described as follows: Inhibition of Mycothiol -S-conjugate amidase (MCA) from mycobacterium tuberculosis.
On to `COC1=C(Br)C[C@]2(C=C1Br)CC(C(=O)NCCc1c[nH]c(N)n1)=NO2`, for which the midpoint of inhibition, the IC50, lay at 100 µM.
Take `N=C(N)CCCCNC(=O)/C(Cc1cc(Br)c(OCCCN)c(Br)c1)=N/O`: inhibition was half-maximal at 2.8 µM (IC50).
Next, `Nc1ccc(SSCCNC(=O)/C(Cc2cc(F)cc(F)c2)=N\O)cc1`: 450 µM; `Nc1ccc(SSCCNC(=O)/C(Cc2cccc(Br)c2)=N\O)cc1`: 185 µM.
Next, `Cc1cccc(C)c1SSCCNC(=O)/C(Cc1cccc(Br)c1)=N/O`: 65 µM.
Next, `COC1=C(Br)C[C@]2(OC=C1Br)ON=C(C(=O)NCCOc1c(Br)cc(CCN)cc1Br)[C@@H]2O`: 20 µM; `CC(=O)N[C@H](CSCc1c(C)c(=O)n2c(=O)c(C)c(C)n12)C(=O)NC1C(OC2C(O)C(O)C(O)C(O)C2O)OC(CO)C(O)C1O` (stereo partly specified) [MYCOTHIOL BIMANE]: around 1 µM; `Nc1ccc(SSCCNC(=O)/C(Cc2ccc(O)c(Cl)c2)=N\O)cc1`: 35 µM.
In the case of `O=C(NCCSSCCNC(=O)/C(Cc1ccc(O)c(Br)c1)=N/O)/C(Cc1ccc(O)c(Br)c1)=N/O` [PSAMMAPLIN A], 2.8 µM corresponded to half-maximal inhibition (IC50).
For `O=C(NCCSSc1ccc(F)cc1)/C(Cc1cccc(Br)c1)=N\O` the value was 90 µM; for `COC1=C(Br)C[C@]2(OC=C1Br)ON=C(C(=O)NCCOc1c(Br)cc(C(O)CN)cc1Br)[C@@H]2O` (stereo partly specified), 26 µM.
Turning to `COC1=C(Br)[C@@H](O)[C@]2(C=C1Br)CC(C(=O)NCCc1[nH]c(N)nc1-c1cc(O)c3ncc(O)c(O)c3c1O)=NO2`, the IC50 – broadly, the concentration at which inhibition is half-maximal – worked out at 2 µM.
For `O=C(NCCSSc1ccc(F)cc1)/C(Cc1cc(F)cc(F)c1)=N\O` the value was 2720 µM.
For `O=C(NCCSSc1ccc(F)cc1)/C(Cc1ccc(O)c(Cl)c1)=N\O` the value was 37 µM; for `NCCCOc1c(Br)cc(C/C(=N\O)C(=O)NCCc2c[nH]c(N)n2)cc1Br`, 36 µM.
Next, `CC(=O)N[C@H](CS)C(=O)NC1C(OC2C(O)C(O)C(O)C(O)C2O)OC(CO)C(O)C1O` (stereo partly specified): around 1 µM.
